Experimental data as given in patent US11034696B2, “Compounds for inhibiting LRRK2 kinase activity” (GLAXOSMITHKLINE INTELLECTUAL PROPERTY DEVELOPMENT LIMITED, priority 2017, dated 2021).
“And” between values parts separate entries of the source, which are not always exact repeats. Equal values may be shown once.

These compounds were tested against T1, LRRK2 (Homo sapiens, UniProt Q5S007) (assay: Recombinant cellular LRRK2 AlphaScreen assay (LRRK2 Ser935 phosphorylation in SH-SY5Y cells over-expressing recombinant full length LRRK2)). Conditions: 60 minutes compound incubation, read-out: pIC50 in the recombinant cellular LRRK2 AlphaScreen assay (converted).
T1 construct: A BacMam virus expressing full length recombinant LRRK2 was purchased from Invitrogen; host or cells: SH-SY5Y human neuroblastoma cells transduced with BacMam LRRK2 virus
T1 sequence (Q5S007 whole entry): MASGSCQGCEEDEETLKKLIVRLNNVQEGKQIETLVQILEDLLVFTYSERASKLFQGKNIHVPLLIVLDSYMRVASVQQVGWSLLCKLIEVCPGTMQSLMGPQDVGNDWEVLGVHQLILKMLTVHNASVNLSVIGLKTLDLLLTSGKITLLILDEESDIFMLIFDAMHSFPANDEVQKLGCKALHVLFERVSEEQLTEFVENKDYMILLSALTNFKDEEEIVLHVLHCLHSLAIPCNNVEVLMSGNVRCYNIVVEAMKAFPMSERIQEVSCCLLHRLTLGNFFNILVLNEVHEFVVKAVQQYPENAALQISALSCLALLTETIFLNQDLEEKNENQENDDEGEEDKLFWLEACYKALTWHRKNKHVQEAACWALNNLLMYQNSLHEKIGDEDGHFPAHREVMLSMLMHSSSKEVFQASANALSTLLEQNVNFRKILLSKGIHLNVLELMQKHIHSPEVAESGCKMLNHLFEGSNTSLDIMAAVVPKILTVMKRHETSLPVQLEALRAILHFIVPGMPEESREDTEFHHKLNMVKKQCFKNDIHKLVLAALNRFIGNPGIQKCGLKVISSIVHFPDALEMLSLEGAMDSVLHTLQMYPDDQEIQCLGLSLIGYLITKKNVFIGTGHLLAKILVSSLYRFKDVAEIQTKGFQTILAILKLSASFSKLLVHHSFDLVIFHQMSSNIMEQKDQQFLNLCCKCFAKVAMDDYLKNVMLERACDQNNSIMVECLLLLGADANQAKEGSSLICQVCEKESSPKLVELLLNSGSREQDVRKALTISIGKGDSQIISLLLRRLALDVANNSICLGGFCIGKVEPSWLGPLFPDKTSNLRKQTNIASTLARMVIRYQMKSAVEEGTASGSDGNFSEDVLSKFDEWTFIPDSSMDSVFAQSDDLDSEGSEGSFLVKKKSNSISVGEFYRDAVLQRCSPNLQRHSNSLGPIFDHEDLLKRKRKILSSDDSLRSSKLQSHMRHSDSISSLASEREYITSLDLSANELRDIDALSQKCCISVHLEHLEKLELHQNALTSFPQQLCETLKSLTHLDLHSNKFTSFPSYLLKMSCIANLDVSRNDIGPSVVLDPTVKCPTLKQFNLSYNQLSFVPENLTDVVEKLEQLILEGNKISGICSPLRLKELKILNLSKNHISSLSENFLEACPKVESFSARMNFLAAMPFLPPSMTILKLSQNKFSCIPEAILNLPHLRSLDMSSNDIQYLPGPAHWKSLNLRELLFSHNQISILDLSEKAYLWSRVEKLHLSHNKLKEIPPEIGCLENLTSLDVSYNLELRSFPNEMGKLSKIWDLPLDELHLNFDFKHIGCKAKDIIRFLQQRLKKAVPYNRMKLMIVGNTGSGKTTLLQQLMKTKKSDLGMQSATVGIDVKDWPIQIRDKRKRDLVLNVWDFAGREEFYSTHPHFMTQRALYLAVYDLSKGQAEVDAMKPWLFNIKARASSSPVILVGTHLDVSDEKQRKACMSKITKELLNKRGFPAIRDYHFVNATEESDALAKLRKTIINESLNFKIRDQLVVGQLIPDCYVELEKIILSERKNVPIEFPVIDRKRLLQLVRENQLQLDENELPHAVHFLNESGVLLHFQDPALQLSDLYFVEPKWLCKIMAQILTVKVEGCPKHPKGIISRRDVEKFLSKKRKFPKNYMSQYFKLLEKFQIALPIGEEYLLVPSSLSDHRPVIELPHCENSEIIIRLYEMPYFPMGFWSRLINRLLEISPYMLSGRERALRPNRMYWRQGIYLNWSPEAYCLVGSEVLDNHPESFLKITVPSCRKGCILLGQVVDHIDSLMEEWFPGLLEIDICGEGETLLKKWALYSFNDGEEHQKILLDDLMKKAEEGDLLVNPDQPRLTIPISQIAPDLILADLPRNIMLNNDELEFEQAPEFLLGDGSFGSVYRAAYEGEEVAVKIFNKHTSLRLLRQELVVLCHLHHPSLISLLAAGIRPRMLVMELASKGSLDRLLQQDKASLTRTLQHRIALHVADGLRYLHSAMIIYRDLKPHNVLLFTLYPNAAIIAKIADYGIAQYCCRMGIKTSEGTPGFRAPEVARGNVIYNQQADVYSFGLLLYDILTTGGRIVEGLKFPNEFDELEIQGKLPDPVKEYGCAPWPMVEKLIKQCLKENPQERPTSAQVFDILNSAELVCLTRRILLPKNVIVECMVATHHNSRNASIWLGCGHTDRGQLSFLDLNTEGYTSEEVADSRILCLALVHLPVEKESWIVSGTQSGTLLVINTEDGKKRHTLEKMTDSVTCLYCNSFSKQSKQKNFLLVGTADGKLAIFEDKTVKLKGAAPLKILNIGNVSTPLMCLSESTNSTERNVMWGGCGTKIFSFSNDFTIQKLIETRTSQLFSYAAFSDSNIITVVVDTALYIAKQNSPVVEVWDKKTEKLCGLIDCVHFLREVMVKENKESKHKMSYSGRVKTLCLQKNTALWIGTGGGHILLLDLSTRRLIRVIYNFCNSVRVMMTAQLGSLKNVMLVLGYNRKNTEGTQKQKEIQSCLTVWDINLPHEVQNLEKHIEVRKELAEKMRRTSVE
Type: cell-based
From the text: 2) Recombinant Cellular LRRK2 AlphaScreen Assay
To determine the activity of compounds against LRRK2 kinase activity in cells, the observed LRRK2 kinase-dependent modulation of LRRK2 Ser 935 phosphorylation (Dzamko et al., 2010, Biochem. J. 430: 405-413) was utilized to develop a quantitative 384 well plate-based immunoassay of LRRK2 Ser935 phosphorylation in the human neuroblastoma cell line SH-SY5Y, engineered to over-express recombinant full length LRRK2 protein.
A BacMam virus expressing full length recombinant LRRK2 was purchased from Invitrogen and amplified by inoculation of SF-9 cells at MOI 0.3 for 4-5 days in Sf-900 III SFM medium supplemented with 3% fetal bovine serum. Infected cell cultures were then centrifuged at 2000 g for 20 minutes, viral supernatant titer determined by anti-gp64 plaque assay and stored at 4° C.
Affinity-purified anti-phospho LRRK2 Ser935 sheep polyclonal antibody (Dzamko et al., 2010, Biochem. J. 430: 405-413) was biotinylated by standard methods (PerkinElmer). Anti-LRRK2 rabbit polyclonal antibody was purchased from Novus Biologicals. AlphaScreen Protein A IgG Kit (including acceptor and donor beads) was purchased from Perkin Elmer. […]
Serial dilutions of test compounds were prepared in Opti-MEM reduced serum media (Invitrogen) and 5.6 ul transferred from compound plate to cell assay plate to achieve a top final assay concentration of 10 uM. […] 10 ul of antibody/acceptor bead mix [(1/1000 biotinylated-pS935 LRRK2 antibody, 1/1000 total-LRRK2 antibody, 1/100 Acceptor beads in AlphaScreen detection buffer (25 mM Hepes (pH 7.4), 0.5% Triton X-100, 1 mg/ml Dextran 500 and 0.1% BSA)] was then added to each well and plates incubated for 2 hours at ambient temperature in the dark. 10 μl of donor beads solution (1/33.3 donor beads in AlphaScreen detection buffer) was then added to each well. Following incubation for a further 2 hours at ambient temperature in the dark, plates were read on an EnVision™ plate reader at emission 520-620 nm with excitation 680 nm. […]
With `COc1nc(N2CCN3CCC[C@@H]3C2)cc(-n2ncc3cc(C)c(C4CCN(C5COC5)CC4F)cc32)n1` (single isomer, unassigned) [Example A-1] the IC50 was ≤ 100 nM.
In the case of `COc1nc(N2CCN3CCC[C@H]3C2)cc(-n2ncc3cc(C)c(C4CCN(C5COC5)CC4F)cc32)n1` (single isomer, unassigned) [Example A-2], the IC50 is reported as ≤ 100 nM.
With `COc1nc(N2CCN3CCOCC3C2)cc(-n2ncc3cc(C)c(C4CCN(C5COC5)CC4)cc32)n1` (single isomer, unassigned) [Example A-13, 8-(2-methoxy-6-(5-methyl-6-(1-(oxetan-3-yl)piperidin-4-yl)-1H-indazol-1-yl)pyrimidin-4-yl)octahydropyrazino[2,1-c][1,4]oxazine] the IC50 was 7.94 nM and ≤ 100 nM.
